Measurements taken from patent publication US12338220B2, “Antiviral pyrazolopiridinone compounds” (Novartis AG, priority 2019, dated 2025).
Structures can show the parent of a compound that is named as a salt. Where two headings read alike, the source gives them in different places.

Key:
CMV-polymerase = CMV-polymerase (Human cytomegalovirus (strain AD169) (HHV-5) (Human herpesvirus 5), UniProt P08546); assay: biochemical
CMV = assay: microbe, parasite or virus in culture; format: cell-based; settings: Human betaherpesvirus 5, 72 h, read-out: CMV-Luc Cellular EC50, NN-NHDF cells, MOI 1, 72 hrs
[1] = read-out: CMV-polymerase Biochemical IC50
[2] = CMV-polymerase Biochemical IC50

SMILES: COc1cccc(NS(=O)(=O)C2(CN3CCc4c(C(=O)NCc5ccc(C#N)cc5)nn(C)c4C3=O)CC2)n1 [Example 163, N-(4-Cyanobenzyl)-6-((1-(N-(6-methoxypyridin-2-yl)sulfamoyl)cyclopropyl)methyl)-1-methyl-7-oxo-4,5,6,7-tetrahydro-1H-pyrazolo[3,4-c]pyridine-3-carboxamide]
- IC50 (CMV-polymerase; [1]): 2 nM
- EC50 (CMV): 67 nM

SMILES: Cc1cccnc1NS(=O)(=O)C1(CN2CCc3c(C(=O)NCc4ccc(C#N)cc4)nn(C)c3C2=O)CC1 [Example 164, N-(4-Cyanobenzyl)-1-methyl-6-((1-(N-(3-methylpyridin-2-yl)sulfamoyl)cyclopropyl)methyl)-7-oxo-4,5,6,7-tetrahydro-1H-pyrazolo[3,4-c]pyridine-3-carboxamide]
- IC50 (CMV-polymerase; [1]): 6 nM
- EC50 (CMV): 157 nM

SMILES: Cc1cc(NS(=O)(=O)C2(CN3CCc4c(C(=O)NCc5ccc(Cl)cc5)nn(C)c4C3=O)CC2)no1 [Example 166, N-(4-Chlorobenzyl)-1-methyl-6-((1-(N-(5-methylisoxazol-3-yl)sulfamoyl)cyclopropyl)methyl)-7-oxo-4,5,6,7-tetrahydro-1H-pyrazolo[3,4-c]pyridine-3-carboxamide]
- IC50 (CMV-polymerase; [1]): 1 nM
- EC50 (CMV): 88 nM

SMILES: Cn1nc(C(=O)NCc2ccc(C#N)cc2)c2c1C(=O)N(CC1(S(=O)(=O)Nc3cc(C4CC4)on3)CC1)CC2 [Example 167, N-(4-Cyanobenzyl)-6-((1-(N-(5-cyclopropylisoxazol-3-yl)sulfamoyl)cyclopropyl)methyl)-1-methyl-7-oxo-4,5,6,7-tetrahydro-1H-pyrazolo[3,4-c]pyridine-3-carboxamide]
- IC50 (CMV-polymerase; [1]): 4 nM
- EC50 (CMV): 517 nM

SMILES: Cn1nc(C(=O)NCc2ccc(C#N)cc2)c2c1C(=O)N(CC1(S(=O)(=O)C3CCOCC3)CC1)CC2 [Example 169, N-(4-Cyanobenzyl)-1-methyl-7-oxo-6-((1-((tetrahydro-2H-pyran-4-yl)sulfonyl)cyclopropyl)methyl)-4,5,6,7-tetrahydro-1H-pyrazolo[3,4-c]pyridine-3-carboxamide]
- IC50 (CMV-polymerase; [1]): 14 nM
- EC50 (CMV): 201 nM

SMILES: Cn1nc(C(=O)NCc2ccc(C#N)cc2)c2c1C(=O)N(CC1(S(=O)(=O)C3(C)COC3)CC1)CC2 [Example 172, N-(4-Cyanobenzyl)-1-methyl-6-((1-((3-methyloxetan-3-yl)sulfonyl)cyclopropyl)methyl)-7-oxo-4,5,6,7-tetrahydro-1H-pyrazolo[3,4-c]pyridine-3-carboxamide]
- IC50 (CMV-polymerase; [2]): 5 nM
- EC50 (CMV): 69 nM

SMILES: Cn1nc(C(=O)NCc2ccc(C#N)cc2)c2c1C(=O)N(CC1(S(=O)(=O)C3(CO)COC3)CC1)CC2 [Example 173, N-(4-Cyanobenzyl)-6-((1-((3-(hydroxymethyl)oxetan-3-yl)sulfonyl)cyclopropyl)methyl)-1-methyl-7-oxo-4,5,6,7-tetrahydro-1H-pyrazolo[3,4-c]pyridine-3-carboxamide]
- IC50 (CMV-polymerase; [1]): 3 nM
- EC50 (CMV): 74 nM

SMILES: Cn1nc(C(=O)NCc2ccc(C#N)cc2)c2c1C(=O)N(CC1(S(=O)(=O)C3(CN)COC3)CC1)CC2 [Example 174, 6-((1-((3-(aminomethyl)oxetan-3-yl)sulfonyl)cyclopropyl)methyl)-N-(4-cyanobenzyl)-1-methyl-7-oxo-4,5,6,7-tetrahydro-1H-pyrazolo[3,4-c]pyridine-3-carboxamide]
- IC50 (CMV-polymerase; [2]): 6 nM
- EC50 (CMV): 212 nM

SMILES: COCC(C)(COC)S(=O)(=O)C1(CN2CCc3c(C(=O)NCc4ccc(C#N)cc4)nn(C)c3C2=O)CC1 [Example 179, N-(4-Cyanobenzyl)-6-((1-((1,3-dimethoxy-2-methylpropan-2-yl)sulfonyl)cyclopropyl)methyl)-1-methyl-7-oxo-4,5,6,7-tetrahydro-1H-pyrazolo[3,4-c]pyridine-3-carboxamide]
- IC50 (CMV-polymerase; [1]): 2 nM
- EC50 (CMV): 49 nM

SMILES: Cn1nc(C(=O)NCc2ccc(C#N)cc2)c2c1C(=O)N(CC1(S(=O)(=O)C(C)(CN)CO)CC1)CC2 (stereo not shown) [Example 183, 6-((1-((1-Amino-3-hydroxy-2-methylpropan-2-yl)sulfonyl)cyclopropyl)methyl)-N-(4-cyanobenzyl)-1-methyl-7-oxo-4,5,6,7-tetrahydro-1H-pyrazolo[3,4-c]pyridine-3-carboxamide]
- IC50 (CMV-polymerase; [1]): 5 nM
- EC50 (CMV): 220 nM

SMILES: Cn1nc(C(=O)NCc2ccc(Cl)cc2)c2c1C(=O)N(CC1(S(=O)(=O)C(C)(C)[C@@H](O)CO)CC1)CC2 [Example 190, (S)—N-(4-Chlorobenzyl)-6-((1-((3,4-dihydroxy-2-methylbutan-2-yl)sulfonyl)cyclopropyl)methyl)-1-methyl-7-oxo-4,5,6,7-tetrahydro-1H-pyrazolo[3,4-c]pyridine-3-carboxamide]
- IC50 (CMV-polymerase; [1]): 1 nM
- EC50 (CMV): 19 nM

SMILES: Cn1nc(C(=O)NCc2ccc(Cl)cc2)c2c1C(=O)N(CC1(S(=O)(=O)C(C)(C)[C@H](O)CO)CC1)CC2 [Example 191, (R)—N-(4-Chlorobenzyl)-6-((1-((3,4-dihydroxy-2-methylbutan-2-yl)sulfonyl)cyclopropyl)methyl)-1-methyl-7-oxo-4,5,6,7-tetrahydro-1H-pyrazolo[3,4-c]pyridine-3-carboxamide]
- IC50 (CMV-polymerase; [1]): 1 nM
- EC50 (CMV): 5 nM

SMILES: Cn1nc(C(=O)NCc2ccc(C#N)cc2)c2c1C(=O)N(CC1(S(=O)(=O)C(C)(C)[C@@H](O)CO)CC1)CC2 [Example 192, (S)-N-(4-Cyanobenzyl)-6-((1-((3,4-dihydroxy-2-methylbutan-2-yl)sulfonyl)cyclopropyl)methyl)-1-methyl-7-oxo-4,5,6,7-tetrahydro-1H-pyrazolo[3,4-c]pyridine-3-carboxamide]
- IC50 (CMV-polymerase; [1]): 1 nM
- EC50 (CMV): 35 nM

SMILES: Cn1nc(C(=O)NCc2ccc(C#N)cc2)c2c1C(=O)N(CC1(S(=O)(=O)C3(C(O)CN)CC3)CC1)CC2 (stereo not shown) [Example 208, 6-((1-((1-(2-Amino-1-hydroxyethyl)cyclopropyl)sulfonyl)cyclopropyl)methyl)-N-(4-cyanobenzyl)-1-methyl-7-oxo-4,5,6,7-tetrahydro-1H-pyrazolo[3,4-c]pyridine-3-carboxamide]
- IC50 (CMV-polymerase; [1]): 1 nM
- EC50 (CMV): 51 nM

SMILES: Cn1nc(C(=O)NCc2ccc(Cl)cc2)c2c1C(=O)N(CC1(S(=O)(=O)C3(C(O)CN)CC3)CC1)CC2 (stereo not shown) [Example 209, 6-((1-((1-(2-Amino-1-hydroxyethyl)cyclopropyl)sulfonyl)cyclopropyl)methyl)-N-(4-chlorobenzyl)-1-methyl-7-oxo-4,5,6,7-tetrahydro-1H-pyrazolo[3,4-c]pyridine-3-carboxamide]
- IC50 (CMV-polymerase; [1]): 1 nM
- EC50 (CMV): 10 nM

SMILES: Cn1nc(C(=O)NCc2ccc(C#N)cc2)c2c1C(=O)N(CC1(S(=O)(=O)C(C)(C)[C@H](N)CO)CC1)CC2 [Example 213, (R)-6-((1-((3-Amino-4-hydroxy-2-methylbutan-2-yl)sulfonyl)cyclopropyl)methyl)-N-(4-cyanobenzyl)-1-methyl-7-oxo-4,5,6,7-tetrahydro-1H-pyrazolo[3,4-c]pyridine-3-carboxamide]
- IC50 (CMV-polymerase; [2]): 2 nM
- EC50 (CMV): 81 nM

SMILES: Cn1nc(C(=O)NCc2ccc(Cl)cc2)c2c1C(=O)N(CC1(S(=O)(=O)C(C)(C)[C@H](N)CO)CC1)CC2 [Example 214, (R)-6-((1-((3-Amino-4-hydroxy-2-methylbutan-2-yl)sulfonyl)cyclopropyl)methyl)-N-(4-chlorobenzyl)-1-methyl-7-oxo-4,5,6,7-tetrahydro-1H-pyrazolo[3,4-c]pyridine-3-carboxamide hydrochloride]
- IC50 (CMV-polymerase; [1]): 3 nM
- EC50 (CMV): 42 nM

SMILES: O=C(NCc1ccc(Cl)cc1)c1nn(CCO)c2c1CCN(CC1(S(=O)(=O)C3CC3)CC1)C2=O [Example 218, N-(4-Chlorobenzyl)-6-((1-(cyclopropylsulfonyl)cyclopropyl)methyl)-1-(2-hydroxyethyl)-7-oxo-4,5,6,7-tetrahydro-1H-pyrazolo[3,4-c]pyridine-3-carboxamide]
- IC50 (CMV-polymerase; [1]): 6 nM
- EC50 (CMV): 42 nM

SMILES: CS(=O)(=O)C1(CN2CCc3c(C(=O)NCc4ccc(Cl)cc4)nn(CCO)c3C2=O)CC1 [Example 219, N-(4-Chlorobenzyl)-1-(2-hydroxyethyl)-6-((1-(methylsulfonyl)cyclopropyl)methyl)-7-oxo-4,5,6,7-tetrahydro-1H-pyrazolo[3,4-c]pyridine-3-carboxamide]
- IC50 (CMV-polymerase; [1]): 30 nM
- EC50 (CMV): 207 nM

SMILES: CC(C)(CO)S(=O)(=O)C1(CN2CCc3c(C(=O)NCc4ccc(C#N)cc4)nn(CCO)c3C2=O)CC1 [Example 220, N-(4-Cyanobenzyl)-6-((1-((1-hydroxy-2-methylpropan-2-yl)sulfonyl)cyclopropyl)methyl)-1-(2-hydroxyethyl)-7-oxo-4,5,6,7-tetrahydro-1H-pyrazolo[3,4-c]pyridine-3-carboxamide]
- IC50 (CMV-polymerase; [1]): 1 nM
- EC50 (CMV): 49 nM

SMILES: CC1(S(=O)(=O)C2(CN3CCc4c(C(=O)NCc5ccc(Cl)cc5)nn(CCOCCO)c4C3=O)CC2)CC1 [Example 222, N-(4-Chlorobenzyl)-1-(2-(2-hydroxyethoxy)ethyl)-6-((1-((1-methylcyclopropyl)sulfonyl)cyclopropyl)methyl)-7-oxo-4,5,6,7-tetrahydro-1H-pyrazolo[3,4-c]pyridine-3-carboxamide]
- IC50 (CMV-polymerase; [2]): 3 nM
- EC50 (CMV): 33 nM

SMILES: CC1(S(=O)(=O)C2(CN3CCc4c(C(=O)NCc5ccc(Cl)cc5)nn(CCOCCN)c4C3=O)CC2)CC1 [Example 223, 1-(2-(2-Aminoethoxy)ethyl)-N-(4-chlorobenzyl)-6-((1-((1-methylcyclopropyl)sulfonyl)cyclopropyl)methyl)-7-oxo-4,5,6,7-tetrahydro-1H-pyrazolo[3,4-c]pyridine-3-carboxamide]
- IC50 (CMV-polymerase; [2]): 5 nM
- EC50 (CMV): 49 nM

SMILES: CCC(=O)Cn1nc(C(=O)NCc2ccc(C#N)cc2)c2c1C(=O)N(CC1(S(=O)(=O)C3CC3)CC1)CC2 [Example 227, N-(4-Cyanobenzyl)-6-((1-(cyclopropylsulfonyl)cyclopropyl)methyl)-7-oxo-1-(2-oxobutyl)-4,5,6,7-tetrahydro-1H-pyrazolo[3,4-c]pyridine-3-carboxamide]
- IC50 (CMV-polymerase; [2]): 1 nM
- EC50 (CMV): 28 nM
